Each block holds one compound with its values, some of them ahead of it. The source made the active and inactive calls. No cut-off for these calls is given here.
Columns and labels:
[1] = system: MDA-MB-231; assay: Induction of NO production in human MDA-MB-231 cells at 4 uM incubated for 72 hrs by DAF-FM-DA dye based flow cytometry analysis; type: functional, cell-based
[2] = system: MDA-MB-453; assay: Antiproliferative activity against human MDA-MB-453 cells assessed as inhibition of cell proliferation incubated for 72 hrs by MTT assay; type: functional, cell-based; conditions: MDA-MB-453, 72 h
[3] = system: MDA-MB-231; assay: Antiproliferative activity against human MDA-MB-231 cells assessed as inhibition of cell proliferation incubated for 72 hrs by MTT assay; type: functional, cell-based; conditions: MDA-MB-231, 72 h
[4] = system: MDA-MB-231; assay: Antiproliferative activity against human MDA-MB-231 cells assessed as inhibition of cell proliferation at 5 uM incubated for 72 hrs by MTT assay relative to control; type: functional
[5] = target: T1, Focal adhesion kinase 1 (Homo sapiens, UniProt Q05397); assay: Inhibition of FAK (unknown origin)
Target sequence in this assay (Q05397 whole entry): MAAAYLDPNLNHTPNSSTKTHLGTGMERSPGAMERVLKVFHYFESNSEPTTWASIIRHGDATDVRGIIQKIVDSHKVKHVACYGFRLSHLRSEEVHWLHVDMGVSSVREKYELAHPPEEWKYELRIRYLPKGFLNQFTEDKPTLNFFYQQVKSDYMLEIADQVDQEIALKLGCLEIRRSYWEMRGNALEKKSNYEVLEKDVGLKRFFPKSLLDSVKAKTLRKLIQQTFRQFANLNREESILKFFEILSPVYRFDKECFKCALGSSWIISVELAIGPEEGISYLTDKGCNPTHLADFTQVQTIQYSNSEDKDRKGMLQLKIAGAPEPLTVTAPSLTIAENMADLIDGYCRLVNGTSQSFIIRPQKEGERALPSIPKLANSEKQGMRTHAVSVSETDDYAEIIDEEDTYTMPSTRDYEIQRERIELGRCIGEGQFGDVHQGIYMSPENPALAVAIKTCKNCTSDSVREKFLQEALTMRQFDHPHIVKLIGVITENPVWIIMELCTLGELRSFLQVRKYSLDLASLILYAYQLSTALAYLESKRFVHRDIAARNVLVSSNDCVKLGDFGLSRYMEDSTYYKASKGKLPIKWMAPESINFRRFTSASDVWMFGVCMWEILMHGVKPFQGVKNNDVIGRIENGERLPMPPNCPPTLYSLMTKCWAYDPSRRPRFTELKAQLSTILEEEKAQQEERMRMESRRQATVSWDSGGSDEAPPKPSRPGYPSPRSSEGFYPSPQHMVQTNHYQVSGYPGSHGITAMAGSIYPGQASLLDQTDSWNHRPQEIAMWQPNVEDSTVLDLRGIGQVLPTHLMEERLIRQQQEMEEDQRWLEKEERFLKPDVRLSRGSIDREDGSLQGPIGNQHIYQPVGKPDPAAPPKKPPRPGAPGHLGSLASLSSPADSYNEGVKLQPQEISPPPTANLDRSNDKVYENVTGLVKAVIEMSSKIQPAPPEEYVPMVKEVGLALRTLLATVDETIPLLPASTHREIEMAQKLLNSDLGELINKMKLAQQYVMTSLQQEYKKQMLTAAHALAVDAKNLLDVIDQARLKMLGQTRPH

[6] = system: MDA-MB-157; assay: Antiproliferative activity against human MDA-MB-157 cells assessed as inhibition of cell proliferation incubated for 72 hrs by MTT assay; type: functional, cell-based; conditions: MDA-MB-157, 72 h
[7] = system: MDA-MB-231; assay: Induction of apoptosis in human MDA-MB-231 cells assessed as late apoptotic cells at 4 uM incubated for 72 hrs by Annexin V-FITC/PI staining based flow cytometry analysis (reference value: 0.11%); type: functional
[8] = system: MDA-MB-231; assay: Inhibition of stress fibers formation in human MDA-MB-231 cells assessed as reduction in FITC-conjugated phalloidin fluorescence signal at 4 uM incubated for 72 hrs by confocal microscopic analysis; type: functional, cell-based
[9] = system: MDA-MB-231; assay: Induction of apoptosis in human MDA-MB-231 cells assessed as dead cells at 1 uM incubated for 72 hrs by Annexin V-FITC/PI staining based flow cytometry analysis (reference value: 0.23%); type: functional
[10] = target: T1, Focal adhesion kinase 1; assay: Inhibition of FAK autophosphorylation at Y397 residue in human MDA-MB-231 cells incubated for 72 hrs by Western blot analysis; type: cell-based; conditions: dose 1-4 µM
Target sequence in this assay (Q05397 2-1052 limits assumed): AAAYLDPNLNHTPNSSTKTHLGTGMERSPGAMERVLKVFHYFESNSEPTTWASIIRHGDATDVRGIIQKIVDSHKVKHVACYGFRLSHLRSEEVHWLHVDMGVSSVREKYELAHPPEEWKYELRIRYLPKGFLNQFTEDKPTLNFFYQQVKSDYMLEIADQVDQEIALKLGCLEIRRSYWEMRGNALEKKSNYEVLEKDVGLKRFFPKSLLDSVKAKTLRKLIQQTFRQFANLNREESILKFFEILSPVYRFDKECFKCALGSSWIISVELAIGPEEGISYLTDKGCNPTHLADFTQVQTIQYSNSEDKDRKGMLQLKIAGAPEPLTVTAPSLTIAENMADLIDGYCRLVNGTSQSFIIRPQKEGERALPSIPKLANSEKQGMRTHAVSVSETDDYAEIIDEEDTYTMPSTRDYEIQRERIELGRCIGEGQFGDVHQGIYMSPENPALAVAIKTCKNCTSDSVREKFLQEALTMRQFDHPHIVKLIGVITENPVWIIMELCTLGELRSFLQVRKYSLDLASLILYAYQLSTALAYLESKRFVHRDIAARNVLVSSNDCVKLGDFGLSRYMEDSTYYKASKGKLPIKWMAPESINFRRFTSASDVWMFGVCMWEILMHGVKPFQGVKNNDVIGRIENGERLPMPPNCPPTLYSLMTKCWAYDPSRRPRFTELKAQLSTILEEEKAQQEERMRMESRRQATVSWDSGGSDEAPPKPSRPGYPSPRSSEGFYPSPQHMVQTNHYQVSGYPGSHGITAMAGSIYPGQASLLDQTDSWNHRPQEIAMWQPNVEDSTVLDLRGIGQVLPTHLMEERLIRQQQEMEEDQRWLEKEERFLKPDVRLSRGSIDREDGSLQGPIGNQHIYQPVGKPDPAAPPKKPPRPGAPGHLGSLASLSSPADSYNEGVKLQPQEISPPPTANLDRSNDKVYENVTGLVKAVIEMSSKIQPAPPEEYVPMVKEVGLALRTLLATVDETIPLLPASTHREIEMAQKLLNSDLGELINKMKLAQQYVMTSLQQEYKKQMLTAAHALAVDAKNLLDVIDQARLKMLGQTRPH

[11] = system: MDA-MB-231; assay: Induction of apoptosis in human MDA-MB-231 cells assessed as early apoptotic cells at 2 uM incubated for 72 hrs by Annexin V-FITC/PI staining based flow cytometry analysis (reference value: 2.16%); type: functional
[12] = system: MDA-MB-231; assay: Effect on FAK protein expression in human MDA-MB-231 cells at 1 to 4 uM incubated for 72 hrs by Western blot analysis; type: functional, cell-based; conditions: dose 1-4 µM
[13] = target: T1, Focal adhesion kinase 1; assay: Inhibition of FAK-mediated signaling pathway in human MDA-MB-231 cells assessed as reduction in phosphorylated AKT protein level incubated for 72 hrs by Western blot analysis; type: cell-based; conditions: dose 1-4 µM
Target sequence in this assay (Q05397 2-1052 limits assumed): as above

[14] = target: T1, Focal adhesion kinase 1; assay: Inhibition of FAK-mediated signaling pathway in human MDA-MB-231 cells assessed as reduction in MMP-9 protein level at 4 uM pretreated with carboxy-PTIO followed by compound addition and further incubated for 72 hrs by Western blot analysis; type: cell-based
Target sequence in this assay (Q05397 2-1052 limits assumed): as above

[15] = system: MDA-MB-231; assay: Inhibition of stress fibers formation in human MDA-MB-231 cells assessed as reduction in total area at 4 uM incubated for 72 hrs; type: functional, cell-based
[16] = system: MDA-MB-231; assay: Inhibition of cell invasion in human MDA-MB-231 cells assessed as reduction in number of invasive cells incubated for 48 hrs by crystal violet staining based inverted microscopic analysis; type: functional; conditions: dose 1-4 µM
[17] = target: T1, Focal adhesion kinase 1; assay: Inhibition of FAK-mediated signaling pathway in human MDA-MB-231 cells assessed as reduction in phosphorylated AKT protein level at 4 uM pretreated with carboxy-PTIO followed by compound addition and further incubated for 72 hrs by Western blot analysis; type: cell-based
Target sequence in this assay (Q05397 2-1052 limits assumed): as above

[18] = system: MDA-MB-231; assay: Induction of apoptosis in human MDA-MB-231 cells assessed as early apoptotic cells at 4 uM incubated for 72 hrs by Annexin V-FITC/PI staining based flow cytometry analysis (reference value: 2.16%); type: functional
[19] = system: MDA-MB-231; assay: Induction of apoptosis in human MDA-MB-231 cells assessed as live cells at 1 uM incubated for 72 hrs by Annexin V-FITC/PI staining based flow cytometry analysis (reference value: 97.51%); type: functional
[20] = system: MDA-MB-231; assay: Induction of NO production in human MDA-MB-231 cells incubated for 72 hrs by DAF-FM-DA dye based flow cytometry analysis; type: functional, cell-based; conditions: dose 1-4 µM
[21] = Selectivity index, ratio of IC50 for human MCF-10A cells to IC50 for human MDA-MB-231 cells; type: toxicity; conditions: MCF-10A cells versus MDA-MB-231 cells, read-out: Ratio IC50
[22] = system: MDA-MB-231; assay: Antitumor activity against human MDA-MB-231 cells xenografted in po dosed BALB/c nude mouse assessed as reduction in number of lung tumor nodules administered once daily for 30 days; type: functional, organism-based; conditions: dose 15-30 mg/kg, time 30.0 day
[23] = system: MDA-MB-231; assay: Induction of apoptosis in human MDA-MB-231 cells assessed as live cells at 4 uM incubated for 72 hrs by Annexin V-FITC/PI staining based flow cytometry analysis (reference value: 97.51%); type: functional
[24] = target: T1, Focal adhesion kinase 1; assay: Inhibition of FAK-mediated signaling pathway in human MDA-MB-231 cells assessed as reduction in MMP-9 protein level incubated for 72 hrs by Western blot analysis; type: cell-based; conditions: dose 1-4 µM
Target sequence in this assay (Q05397 2-1052 limits assumed): as above

[25] = system: MDA-MB-231; assay: Inhibition of focal adhesion formation in human MDA-MB-231 cells assessed as reduction in total area at 4 uM incubated for 72 hrs; type: functional, cell-based
[26] = system: MDA-MB-231; assay: Antimigratory activity in human MDA-MB-231 cells incubated for 48 hrs by scratch wound healing assay; type: functional, cell-based; conditions: dose 1-4 µM
[27] = system: MDA-MB-231; assay: Induction of apoptosis in human MDA-MB-231 cells assessed as dead cells at 4 uM incubated for 72 hrs by Annexin V-FITC/PI staining based flow cytometry analysis (reference value: 0.23%); type: functional
[28] = system: MDA-MB-231; assay: Induction of apoptosis in human MDA-MB-231 cells assessed as live cells at 2 uM incubated for 72 hrs by Annexin V-FITC/PI staining based flow cytometry analysis (reference value: 97.51%); type: functional
[29] = system: MDA-MB-231; assay: Induction of apoptosis in human MDA-MB-231 cells assessed as late apoptotic cells at 2 uM incubated for 72 hrs by Annexin V-FITC/PI staining based flow cytometry analysis (reference value: 0.11%); type: functional
[30] = Cytotoxicity against human MCF-10A cells assessed as inhibition of cell proliferation incubated for 72 hrs by MTT assay; type: toxicity, cell-based
[31] = Toxicity in BALB/c nude mouse xenografted with human MDA-MB-231 cells assessed as animal death at 50 to 30 mg/kg, po administered once daily for 30 days; type: organism-based; conditions: in vivo, 720 h, dose 50-30 mg/kg, time 30 day
[32] = target: T1, Focal adhesion kinase 1; assay: Inhibition of FAK-mediated signaling pathway in human MDA-MB-231 cells assessed as reduction in MMP-2 protein level incubated for 72 hrs by Western blot analysis; type: cell-based; conditions: dose 1-4 µM
Target sequence in this assay (Q05397 2-1052 limits assumed): as above

[33] = system: MDA-MB-231; assay: Antiproliferative activity against human MDA-MB-231 cells assessed as inhibition of cell proliferation at 1 uM pretreated with carboxy-PTIO at 5 to 20 uM for 1 hr followed by compound addition and further incubated for 72 hrs by MTT assay; type: functional, cell-based
[34] = system: MDA-MB-231; assay: Induction of apoptosis in human MDA-MB-231 cells assessed as dead cells at 2 uM incubated for 72 hrs by Annexin V-FITC/PI staining based flow cytometry analysis (reference value: 0.23%); type: functional
[35] = system: MDA-MB-231; assay: Induction of apoptosis in human MDA-MB-231 cells assessed as late apoptotic cells at 1 uM incubated for 72 hrs by Annexin V-FITC/PI staining based flow cytometry analysis (reference value: 0.11%); type: functional
[36] = system: MDA-MB-231; assay: Inhibition of stress fibers formation in human MDA-MB-231 cells assessed as reduction in number of stress fibers at 4 uM incubated for 72 hrs by quantitative analysis; type: functional, cell-based
[37] = system: MDA-MB-231; assay: Induction of apoptosis in human MDA-MB-231 cells assessed as early apoptotic cells at 1 uM incubated for 72 hrs by Annexin V-FITC/PI staining based flow cytometry analysis (reference value: 2.16%); type: functional
[38] = Toxicity in BALB/c nude mouse xenografted with human MDA-MB-231 cells assessed as reduction in body weight at 50 to 30 mg/kg, po administered once daily for 30 days and measured every 3 days; type: organism-based; conditions: in vivo, 720 h, dose 50-30 mg/kg, time 30 day
[39] = system: MDA-MB-231; assay: Inhibition of stress fibers formation in human MDA-MB-231 cells assessed as reduction in FITC-conjugated phalloidin fluorescence signal at 4 uM pretreated with carboxy-PTIO for 1 hr followed by compound addition and further incubated for 72 hrs by confocal microscopic analysis; type: functional, cell-based
[40] = system: MDA-MB-231; assay: Inhibition of focal adhesion formation in human MDA-MB-231 cells assessed as reduction in number of focal adhesions at 4 uM incubated for 72 hrs by quantitative analysis; type: functional, cell-based
[41] = system: MDA-MB-231; assay: Potency index, ratio of TAE226 IC50 to test compound IC50 for antiproliferative activity against human MDA-MB-231 cells assessed as inhibition of cell proliferation incubated for 72 hrs by MTT assay; type: functional
[42] = system: MDA-MB-231; assay: Inhibition of focal adhesion formation in human MDA-MB-231 cells assessed as reduction in anti-vinculin antibodies fluorescence signal at 4 uM incubated for 72 hrs by confocal microscopic analysis; type: functional, cell-based
[43] = system: MDA-MB-231; assay: Antiproliferative activity against human MDA-MB-231 cells assessed as inhibition of cell proliferation at 1 uM incubated for 72 hrs by MTT assay; type: functional, cell-based
[44] = target: T1, Focal adhesion kinase 1; assay: Inhibition of FAK-mediated signaling pathway in human MDA-MB-231 cells assessed as reduction in MMP-2 protein level at 4 uM pretreated with carboxy-PTIO followed by compound addition and further incubated for 72 hrs by Western blot analysis; type: cell-based
[45] = target: T1, Focal adhesion kinase 1; assay: Inhibition of FAK autophosphorylation at Y397 residue in human MDA-MB-231 cells at 4 uM pretreated with carboxy-PTIO followed by compound addition and further incubated for 72 hrs by Western blot analysis; type: cell-based
[46] = system: MDA-MB-231; assay: Inhibition of focal adhesion formation in human MDA-MB-231 cells assessed as reduction in anti-vinculin antibodies fluorescence signal at 4 uM pretreated with carboxy-PTIO for 1 hr followed by compound addition and further incubated for 72 hrs by confocal microscopic analysis; type: functional, cell-based
[47] = system: MDA-MB-231; assay: Antiproliferative activity against human MDA-MB-231 cells assessed as inhibition of cell proliferation incubated for 72 hrs in presence of 2-(4-((5-chloro-4-((2-(methylcarbamoyl)phenyl)amino)pyrimidin-2-yl)amino)phenyl)acetic acid by MTT assay; type: functional, cell-based; conditions: MDA-MB-231, 72 h

IC50 [2]: 246 nM
IC50 [3]: 129 nM
IC50 [5]: 31.4 nM
IC50 [6]: 188 nM
SMILES: CNC(=O)c1ccccc1Nc1nc(Nc2ccc(CC(=O)OCCCCCCCOc3no[n+]([O-])c3S(=O)(=O)c3ccccc3)cc2)ncc1Cl
Activity [1]: Active
inhibition at 5 µM [4]: > 92%

SMILES: CNC(=O)c1ccccc1Nc1nc(Nc2ccc(CC(=O)OCCCCCCCCOc3no[n+]([O-])c3S(=O)(=O)c3ccccc3)cc2)ncc1Cl
Activity [7]: 13.94%
inhibition [8]: Active
Activity [9]: 3.94%
inhibition [10]: Dose-Dependent Effect
IC50 [2]: 159 nM
Activity [11]: 9.88%
Activity [12]: inactive
inhibition [13]: Dose-Dependent Effect
inhibition [14]: inactive
inhibition [15]: Active
inhibition [16]: Dose-Dependent Effect
inhibition [17]: inactive
Activity [18]: 56.72%
Activity [19]: 77.01%
Activity [20]: Dose-Dependent Effect
selectivity ratio [21]: 19.1
Activity [22]: Dose-Dependent Effect
Activity [23]: 26%
inhibition [24]: Dose-Dependent Effect
inhibition [25]: Active
Activity [26]: Dose-Dependent Effect
IC50 [3]: 126 nM
Activity [27]: 3.34%
Activity [28]: 74.91%
Activity [29]: 13.83%
IC50 at 72 h [30]: 2400 nM
Activity [31]: Non-Toxic
inhibition [32]: Dose-Dependent Effect
Activity [33]: inactive
Activity [34]: 1.38%
Activity [35]: 6.46%
inhibition [36]: Active
Activity [37]: 12.6%
Activity [38]: Non-Toxic
inhibition [39]: inactive
inhibition at 5 µM [4]: > 92%
inhibition [40]: Active
IC50 [5]: 27.4 nM
Ratio IC50 [41]: ~10
inhibition [42]: Active
IC50 [6]: 167 nM
Activity [43]: Active
inhibition [44]: inactive
inhibition [45]: inactive
inhibition [46]: inactive

IC50 [2]: 221 nM
IC50 [3]: 130 nM
IC50 [5]: 107 nM
IC50 [6]: 235 nM
SMILES: CNC(=O)c1ccccc1Nc1nc(Nc2ccc(CC(=O)OCCCCCOc3no[n+]([O-])c3S(=O)(=O)c3ccccc3)cc2)ncc1Cl
Activity [1]: Active
inhibition at 5 µM [4]: > 92%

IC50 [3]: 1500 nM
IC50 [47]: 1220 nM
SMILES: O=S(=O)(c1ccccc1)c1c(OCCCCCCCCO)no[n+]1[O-]

From ChEMBL document CHEMBL5385886, “Design, synthesis and evaluation of nitric oxide releasing derivatives of 2,4-diaminopyrimidine as novel FAK inhibitors for intervention of metastatic triple-negative breast cancer” (Eur J Med Chem, 2023)
